Our source for the cytotoxicity values is ChEMBL document CHEMBL3507680, “University of Dundee, Gates Library screen for HepG2 cell viability”.

The data set can be described thus: Human HepG2 cell viability assay in 384 well format. The data set is classed as toxicity, cell-based. Also noted: dose 125 nL, time 70.5 hour; concentration not given beside the values. The following applies: HepG2 cells, read-out: Inhibition.
For `COc1ccc(CC(C)Nc2cccc(F)c2)cc1` (stereo not drawn), the cytotoxicity at 70.5 h is -1.11%. The figure for `CSc1cccc(CN2CCC(CCC(=O)NC3CC3)CC2)c1` is -7.44%; for `CN(C)C[C@@H]1CN(C2CCN(c3ccccc3Cl)CC2)C[C@@H]1CO` it is -14.4%. Next, `CSCC(=O)N1CCC(Oc2cccc(C)c2)CC1`: -7.4%. Consider `COc1ccccc1-c1ncc(CN2CCCC[C@H](N(C)C)C2)s1`, for which the cytotoxicity at 70.5 h is 4.63%. For `O=S(=O)(NCCn1cc(C2CCCNC2)nn1)c1ccc(Cl)cc1` (stereo not drawn), the cytotoxicity at 70.5 h is -9.08%.

As to `C=C(C)COc1ccccc1C(=O)N1CCC2(CC1)CN(C)CCN2C`, the cytotoxicity at 70.5 h was -11.5%. As for `O=C(O)CCc1cc2n(n1)CCCN(C(=O)c1ccc(Cl)s1)C2`, the cytotoxicity at 70.5 h is -22.4%. The figure for `CCCn1ncc(C(=O)N2CCN(C3CCSCC3)CC2)c1C` is 2.68%. Regarding `COC(=O)CNCC1(O)CCCN(Cc2cccc(F)c2F)C1=O` (stereo not drawn), the cytotoxicity at 70.5 h is -0.438%. Turning to `CC(C)n1cc(C(=O)N2CCC(n3cc(C(C)(C)C)nn3)CC2)cn1`, the cytotoxicity at 70.5 h is -12.1%. The figure for `COc1c(C)cc(C(C(=O)O)N(C)Cc2ccn[nH]2)cc1C` (stereo not drawn) is -3.26%; for `Cc1nc(CN(C)C(=O)c2cc(C)sc2NC(=O)C(C)(C)C)no1` it is -11.2%; for `CC(C)SCC(=O)N1CCCn2nc(C(=O)Nc3ccccc3)cc2C1` it is 6.99%. Take `COCCN(Cc1cnn(C)c1)C(=O)C1COc2c(cccc2OC)C1` (stereo not drawn): the cytotoxicity at 70.5 h was determined as 0.35%.

On to `Cc1cc(C)c2c(NCCC3(O)CCCC3)ncnc2n1`, for which the cytotoxicity at 70.5 h was -6.61%. On to `CC1CCCN1Cc1cccc(C(=O)Nc2ccc3c(c2)CCC3=O)c1` (stereo not drawn), for which the cytotoxicity at 70.5 h was 5.96%.

Consider `Cc1ccnn1CC(=O)N1CCCN(C2Cc3ccccc3C2)CC1`, for which the cytotoxicity at 70.5 h is -14.5%. Next, `Cc1nn2cc(CCNC(=O)c3cc(C(C)C)nn3C)nc2s1`: 6.04%. Take `COCCn1ccnc1C1CCCN(c2cnccn2)C1` (stereo not drawn): the cytotoxicity at 70.5 h stood at 15.5%. The figure for `CC(C)NS(=O)(=O)c1cc(C(=O)O)cc(-c2ccccc2CO)c1` is -3.6%. As for `O=C(NCCCO)C1(N2CCCCC2)Cc2ccccc2C1`, the cytotoxicity at 70.5 h was -10.2%. `CC(=O)c1ccc(C(=O)N(C)Cc2nc(-c3ccccn3)no2)s1`: the cytotoxicity at 70.5 h was determined as 8.57%. Regarding `Cc1ccc(Oc2ncccc2CNC(=O)C2COC(=O)N2)c(F)c1F` (stereo not drawn), the cytotoxicity at 70.5 h was -11.2%. As for `CCc1[nH]c2c(CNC(=O)C3CCN(C)C3)cc(C)cc2c1C` (stereo not drawn), the cytotoxicity at 70.5 h is -8.68%. For the compound `C=C(C)COc1ccc(C(=O)N(C)C(C)c2ccon2)cc1` (stereo not drawn), the cytotoxicity at 70.5 h was -9.63%. As for `CN(Cc1cc2n(n1)CCCNC2)Cc1n[nH]c2c1CCC2`, the cytotoxicity at 70.5 h is -13.3%. For `O=C(NCc1csc(Cc2ccccc2)n1)C1NCCc2[nH]cnc21` (stereo not drawn), the cytotoxicity at 70.5 h is -2.44%. For `CN(Cc1cc2n(n1)CCCN(C(=O)N1CCCC1)C2)Cc1nccs1`, the cytotoxicity at 70.5 h was 24.4%. Turning to `O=C(Cc1ccncc1)N(CCO)CCSc1ccc(Cl)cc1`, the cytotoxicity at 70.5 h was -12.1%. Regarding `CCOc1ccccc1CCN1Cc2ncccc2C1=O`, the cytotoxicity at 70.5 h was found to be 3.15%.

With `O=C(C1CC1)N1CCN(C(=O)CSc2ccccn2)[C@H]2CS(=O)(=O)C[C@H]21`, the cytotoxicity at 70.5 h was 24%. Next, `Cc1cccc(CN2CCC(NS(C)(=O)=O)CC2)n1`: -8.65%. In the case of `CCOCCC(=O)N1CCCCC1CCn1cccn1` (stereo not drawn), the cytotoxicity at 70.5 h is -6.8%. Turning to `CC(c1nccs1)N(C)Cc1ccc(CCC(C)(C)O)cc1` (stereo not drawn), the cytotoxicity at 70.5 h was 0.285%. The figure for `CN1CCN(S(=O)(=O)N2CCCCC2CCc2ccc(O)cc2)CC1` (stereo not drawn) is -4.09%; for `CCC(=O)c1ccc(OCC(=O)NC(C)Cc2cc(C)n[nH]2)cc1` (stereo not drawn) it is -8.59%; for `CC(C)Oc1ccccc1-c1cc(CN)ccc1F` it is 5.05%. For `Cc1ccc(NC(=O)CNC(C)CN2CCCCC2)c(F)c1` (stereo not drawn), the cytotoxicity at 70.5 h worked out at 6.42%. The figure for `O=C(O)CCc1cc2n(n1)CCN(Cc1ccc3[nH]ccc3c1)C2` is -2.66%. On to `CCn1nc(C)c(CN(CCOC)C(=O)c2ccc(=O)[nH]n2)c1C`, for which the cytotoxicity at 70.5 h was -4.87%. As to `c1ccc2c3c([nH]c2c1)CN(Cc1cc2n(n1)CCNC2)CC3`, the cytotoxicity at 70.5 h was found to be 21.1%.

As to `CN1CCN(C)C2(CCN(Cc3ccc(C4CCCO4)s3)CC2)C1` (stereo not drawn), the cytotoxicity at 70.5 h was -3.28%. Take `CCn1cc(Cn2cc(-c3cccc(C(C)N(C)C)c3)nn2)cn1` (stereo not drawn): the cytotoxicity at 70.5 h is -6.09%. Next, `COCCNc1cc(-c2ccccc2C(N)=O)c2cc[nH]c2n1`: -10.4%; `Cc1ccccc1N1CCN(C2CCCN(C(=O)CCC(C)C)C2)CC1` (stereo not drawn): -0.359%; `COCCN(C)C[C@@H]1CN(C(=O)c2ccc(OC)c(F)c2)C[C@@H]1CO`: -7.53%. Take `CCN(CCSc1ccccc1)C(=O)c1cn([C@H]2CC[C@@H](N)CC2)nn1`: the cytotoxicity at 70.5 h was -11.7%.

With `NCC1CCCCN1Cc1cc(O)c2cccc(F)c2n1` (stereo not drawn), the cytotoxicity at 70.5 h was 21.6%. The figure for `CN(C)Cc1nc(C(=O)N2CCCC(COc3ccc(F)cc3)C2)cs1` (stereo not drawn) is -7.27%. The figure for `CCN1CCC(CC(=O)NC[C@H]2CCc3ccccc3O2)CC1` is -8.77%; for `CC1CCc2n[nH]c(C(=O)N3CCc4c(nc(N(C)C)[nH]c4=O)C3)c2C1` (stereo not drawn) it is -13.8%. For `Cc1nn(CC(=O)N(C)Cc2nncn2C(C)C)c(=O)c2ccccc12`, the cytotoxicity at 70.5 h was -9.91%.

Take `N[C@H]1CC[C@@H](n2cc(C(=O)N[C@H]3CCCc4ccccc43)nn2)CC1`: the cytotoxicity at 70.5 h is -10.4%.

On to `COc1ccc(CCNCc2ccco2)cc1OC`, for which the cytotoxicity at 70.5 h was -6.05%. Take `Cc1cccc(CN(C(=O)CS(C)(=O)=O)C(C)C)c1`: the cytotoxicity at 70.5 h was -2.96%.

In the case of `Cc1cc(C(=O)NCc2cccnc2N2CCCC(O)C2)c(C)o1` (stereo not drawn), the cytotoxicity at 70.5 h is -8.63%. Take `CN(CCCc1cnn(C)c1)C(=O)Nc1cccc2[nH]ncc12`: the cytotoxicity at 70.5 h was -15.7%. Next, `CN(C)S(=O)(=O)N1CC[C@]2(O)CCN(Cc3cccc(F)c3)C[C@@H]2C1`: -6.74%. In the case of `Cc1c[nH]c(CN(C)C(=O)C(C)(C)NC(=O)c2cccs2)n1`, the cytotoxicity at 70.5 h was -19.9%.

On to `O=C(O)C1(Cc2ccc(Cl)cc2)CCN(c2ncccc2F)CC1`, for which the cytotoxicity at 70.5 h is -4.45%. Next, `CCCn1c(C)c(CC(=O)NCCNC(C)=O)c2c1CC(C)(C)CC2=O`: 1.34%; `Cc1c(C(=O)N2CCC(O)(CN(C)C)C2)c2cc(O)ccc2n1C` (stereo not drawn): -9.59%; `CSCCc1nc(C(C)C)nn1-c1ccncc1C`: -12.8%. Next, `Cc1cc(NCCc2nnc(N)s2)nc(-c2cccnc2)n1`: -6%; `CCCN1CCC(Cc2noc(-c3cccnc3OC)n2)CC1`: 2.25%; `O=C(c1cnc(O)cn1)N1C[C@@H]2CC[C@H](C1)N(Cc1ccccc1)C2`: -0.665%. Next, `Cc1cc(CNC(=O)CCCN2CCCCC2)n(C)n1`: 12.2%. For the compound `Cc1cc(C)cc(N2CCN(C(=O)C3CN(C)C(=O)N3)CC2=O)c1` (stereo not drawn), the cytotoxicity at 70.5 h is -9.45%.

With `CC(NC(=O)c1cccc(CCC(C)(C)O)c1)c1nnc(N)s1` (stereo not drawn), the cytotoxicity at 70.5 h is 30.7%.

Turning to `Cn1c(C2CCCN2C(=O)c2cn(CCN)nn2)nc2ccccc21` (stereo not drawn), the cytotoxicity at 70.5 h was -15.7%. Next, `O=C(CCN1CCCC(CO)(CC2CC2)C1)NCc1cccc(Cl)c1` (stereo not drawn): -7.94%; `Cc1ccc(C2(O)CCN(Cc3nc(C)n4ccccc34)CC2)nc1`: -9.79%; `CCn1c(Cn2cncn2)nnc1C1CCN(Cc2ccccn2)CC1`: 6.14%. The figure for `CCCc1n[nH]c(=O)n1[C@@H](CC)c1ccccc1` is -10.8%. `Oc1ccc(-c2c(-c3ccccc3)ncn2C[C@H]2CCCN2)cc1`: the cytotoxicity at 70.5 h was -2.17%. On to `CCCn1cc(C(=O)NC(C(=O)O)c2ccccc2C(F)(F)F)c(C)n1` (stereo not drawn), for which the cytotoxicity at 70.5 h is -8.7%. Next, `Cc1nsc(NC(=O)N2CCN(Cc3ccccc3F)C(=O)C2)n1`: -8.72%. Next, `Cc1cc(C)nc(NC(C)Cc2cnccn2)n1` (stereo not drawn): -14%. The figure for `CCCn1ccnc1CN1CCCC1c1ccccn1` (stereo not drawn) is -4.45%; for `CN(C)[C@H]1CCN(c2nc(C(C)(C)C)nc3c2cnn3C)C1` it is 27.9%; for `Cc1[nH]c(=O)[nH]c(=O)c1CN1CCCC(CCc2ccc(F)cc2F)C1` (stereo not drawn) it is -9.69%. As for `COc1ccccc1OC1CN(C(=O)c2c(C)nc3ccc(C)cn23)C1`, the cytotoxicity at 70.5 h is -1.56%.

Consider `CC(C)(C)c1cc(CN2CCOC(CCc3ccccc3)C2)n[nH]1` (stereo not drawn), for which the cytotoxicity at 70.5 h is -9.92%. Next, `COc1cccn(Cc2nnc(-c3cccnc3)o2)c1=O`: -1.16%; `CC(C)N1CCCC(C(=O)NC(C)(C)c2nnc(N)s2)C1` (stereo not drawn): -12.2%; `CCc1c(C)nn(CCNC(=O)c2cc(C3CC3)n[nH]2)c1C`: -2.41%. As to `CO[C@H]1C[C@@H](O)C12CCN(C(=O)CCSCc1ccc(F)cc1)CC2`, the cytotoxicity at 70.5 h was -18.7%. On to `CC(=O)NCCNC(=O)c1cc(COc2ccccc2)[nH]n1`, for which the cytotoxicity at 70.5 h was found to be 1.84%. `CN(CCc1ccccn1)C(=O)c1cn(CCN2CCNCC2)nn1`: the cytotoxicity at 70.5 h is -10.7%. The figure for `COC(=O)NCC(=O)N(C)Cc1csc(-c2cccs2)n1` is 3.35%; for `Cc1ccsc1CN(CCN(C)C)C(=O)c1cc2ccccc2[nH]1` it is 4.92%; for `c1ccc2c(c1)nnn2CCCNC1CCOC2(CCOCC2)C1` (stereo not drawn) it is -5%. The figure for `CCCc1cc(C(=O)N(Cc2cccnc2)C2CCCCC2)[nH]n1` is -7.56%; for `CCC(CO)(CO)NC(=O)C1CCC(=O)N(CCc2ccccc2)C1` (stereo not drawn) it is -10.4%. Take `CCC(O)c1nc2c([nH]1)CC(C)(C)CNC2=O` (stereo not drawn): the cytotoxicity at 70.5 h was 13%.

For `CCN(CC)Cc1cc(C(=O)N2CCCC(O)(CO)C2)c(C)o1` (stereo not drawn), the cytotoxicity at 70.5 h was -7.27%. As to `O=S1(=O)CCC(n2cc(C3=CCN(CCn4cccc4)CC3)cn2)C1` (stereo not drawn), the cytotoxicity at 70.5 h worked out at 26.8%.
